Test results reported in US11000033B2, “Ketone or oxime compound, and herbicide” (NISSAN CHEMICAL CORPORATION, priority 2014, dated 2021).

Key:
Assay type in all cases: in vivo
[1] = system: Echinochloa oryzacola Vasing.; assay: Test Example 1: herbicidal activity, application before weed generation in submerged conditions (symbol A); conditions: application herbicide amount 320 g/ha
In short: (§1)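 Pre-emergence, paddy conditions: emulsifiable formulation diluted in water, dosed onto floodwater (4 cm depth) on sowing day. Alluvial soil; weeds sown mixed; rice transplanted at 2.5-leaf stage. Greenhouse 25–30 °C, 3 wk. Score 0–5 (5 = ≥90% kill, 0 = ≤5%).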

[2] = system: Scirpus juncoides; assay: Test Example 1: herbicidal activity, application before weed generation in submerged conditions (symbol B); conditions: application herbicide amount 320 g/ha
In short: as §1

[3] = system: Echinochloa crus-galli var. crus-galli; assay: Test Example 3: herbicidal effect by foliage application, Wagner pot (symbol H); conditions: application herbicide amount 320 g/ha
In short: (§2)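 Weeds and rice were sown in alluvial soil under 0.1–0.5 cm of standing water and grown for 14 days in a 25–30 °C greenhouse. An emulsion of the compound, diluted in water to a set dose, was sprayed evenly onto the foliage. Effect was scored against fixed criteria 3 weeks after treatment.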

[4] = system: Cyperus difformis; assay: Test Example 3: herbicidal effect by foliage application, Wagner pot (symbol E); conditions: application herbicide amount 320 g/ha
In short: as §2

[5] = system: Setaria viridis; assay: Test Example 4: herbicidal effect by soil treatment (symbol G); conditions: application herbicide amount 320 g/ha
In short: (§3)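 Seeds were sown in sterilized diluvial soil, covered with about 1.5 cm of soil, and the soil surface was sprayed with a water-diluted emulsion of the compound at a predetermined rate. Plants grew in a greenhouse at 25° C. to 30° C.; effects were scored visually 3 weeks after application.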

[6] = system: Alopecurus myosuroides; assay: Test Example 4: herbicidal effect by soil treatment (symbol J); conditions: application herbicide amount 320 g/ha
In short: as §3

[7] = system: Apera spica-venti; assay: Test Example 4: herbicidal effect by soil treatment (symbol L); conditions: application herbicide amount 320 g/ha
In short: as §3

[8] = system: Galium spurium; assay: Test Example 4: herbicidal effect by soil treatment (symbol Q); conditions: application herbicide amount 320 g/ha
In short: as §3

[9] = system: wheat; assay: Test Example 4: effect on crop by soil treatment (symbol e); conditions: application herbicide amount 320 g/ha
In short: (§4)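 Plants grew in a 25° C. to 30° C. greenhouse after spot-sowing of seeds, including beet, rapeseed, wheat and rice, into sterilized diluvial soil under roughly 1.5 cm of cover soil.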

[10] = system: rapeseed; assay: Test Example 4: effect on crop by soil treatment (symbol g); conditions: application herbicide amount 320 g/ha
In short: as §4

[11] = system: Digitaria ciliaris; assay: Test Example 5: herbicidal effect by foliage application, plastic box (symbol F); conditions: 320 g/ha, 3 weeks after application
In short: (§5)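 Post-emergence spray; diluvial soil (sterilized), ~1.5 cm seed cover; greenhouse 25–30° C; 14-day-old plants; water-diluted emulsion at predetermined dose; visual score at 3 wk post-treatment.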

[12] = system: Alopecurus myosuroides; assay: Test Example 5: herbicidal effect by foliage application, plastic box (symbol J); conditions: 320 g/ha, 3 weeks after application
In short: as §5

[13] = system: Apera spica-venti; assay: Test Example 5: herbicidal effect by foliage application, plastic box (symbol L); conditions: 320 g/ha, 3 weeks after application
In short: as §5

[14] = system: Abutilon theophrasti; assay: Test Example 5: herbicidal effect by foliage application, plastic box (symbol M); conditions: 320 g/ha, 3 weeks after application
In short: as §5

[15] = system: Amaranthus retroflexus; assay: Test Example 5: herbicidal effect by foliage application, plastic box (symbol N); conditions: 320 g/ha, 3 weeks after application
In short: as §5

[16] = system: Stellaria media; assay: Test Example 5: herbicidal effect by foliage application, plastic box (symbol P); conditions: 320 g/ha, 3 weeks after application
In short: as §5

[17] = system: Galium spurium; assay: Test Example 5: herbicidal effect by foliage application, plastic box (symbol Q); conditions: 320 g/ha, 3 weeks after application
In short: as §5

[18] = system: beet; assay: Test Example 5: effect on crop by foliage application, plastic box (symbol f); conditions: 320 g/ha, 3 weeks after application
In short: (§6)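 Seeds were sown in spots in sterilized diluvial soil held in a plastic box 21 cm × 13 cm × 7 cm deep, covered with about 1.5 cm of soil, and grown in a greenhouse at 25° C. to 30° C.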

[19] = system: rapeseed; assay: Test Example 5: effect on crop by foliage application, plastic box (symbol g); conditions: 320 g/ha, 3 weeks after application
In short: as §6

Row | SMILES | Herbicidal effect grade, A: Echinochloa oryzacola Vasing. [1] | Herbicidal effect grade, B: Scirpus juncoides [2] | herbicidal effect on H (Echinochloa crus-galli var. crus-galli), grade 0-5 [3] | herbicidal effect on E, grade 0-5 [4] | F: Digitaria ciliaris, herbicidal effect (criteria of Test Example 1) [11] | J: Alopecurus myosuroides, herbicidal effect (criteria of Test Example 1) [12] | L: Apera spica-venti, herbicidal effect (criteria of Test Example 1) [13] | M: Abutilon theophrasti, herbicidal effect (criteria of Test Example 1) [14] | N: Amaranthus retroflexus, herbicidal effect (criteria of Test Example 1) [15] | P: Stellaria media, herbicidal effect (criteria of Test Example 1) [16] | Q: Galium spurium, herbicidal effect (criteria of Test Example 1) [17] | f: beet, effect on crop (criteria of Test Example 1) [18] | g: rapeseed, effect on crop (criteria of Test Example 1) [19] | further results
1 | CC(=O)CC1CC(O)=C(c2c(C)cc(Br)cc2C)C1=O (stereo not drawn) [7-002] | 0 (Herbicidal ratio of 5% or lower (almost no effect)) | 0 (Herbicidal ratio of 5% or lower (almost no effect)) | 5 (Herbicidal ratio of 90% or more (almost completely withered)) | 3 (Herbicidal ratio of 40% or higher and lower than 70%) | 5 (Herbicidal ratio of 90% or more (almost completely withered)) | 4 (Herbicidal ratio of 70% or higher and lower than 90%) | 3 (Herbicidal ratio of 40% or higher and lower than 70%) | 0 (Herbicidal ratio of 5% or lower (almost no effect)) | 0 (Herbicidal ratio of 5% or lower (almost no effect)) | 0 (Herbicidal ratio of 5% or lower (almost no effect)) | 0 (Herbicidal ratio of 5% or lower (almost no effect)) | 0 (Herbicidal ratio of 5% or lower (almost no effect)) | 0 (Herbicidal ratio of 5% or lower (almost no effect)) | Herbicidal effect grade, G: Setaria viridis [5]: 4 (Herbicidal ratio of 70% or higher and lower than 90%); Herbicidal effect grade, J: Alopecurus myosuroides [6]: 3 (Herbicidal ratio of 40% or higher and lower than 70%); Herbicidal effect grade, L: Apera spica-venti [7]: 5 (Herbicidal ratio of 90% or more (almost completely withered)); Herbicidal effect grade, Q: Galium spurium [8]: 0 (Herbicidal ratio of 5% or lower (almost no effect)); Effect on crop grade, e: wheat [9]: 0 (Herbicidal ratio of 5% or lower (almost no effect)); Effect on crop grade, g: rapeseed [10]: 0 (Herbicidal ratio of 5% or lower (almost no effect))
2 | CON=C(C)CC1CC(OC(=O)C2CC2)=C(c2c(C)cc(C)cc2C)C1=O (stereo not drawn) [1-015] | 5 (Herbicidal ratio of 90% or more (almost completely withered)) | 5 (Herbicidal ratio of 90% or more (almost completely withered)) | 5 (Herbicidal ratio of 90% or more (almost completely withered)) | 5 (Herbicidal ratio of 90% or more (almost completely withered)) | – | – | – | – | – | – | – | – | – | G (Setaria viridis) herbicidal effect grade [5]: 3 (Herbicidal ratio of 40% or higher and lower than 70%); J (Alopecurus myosuroides) herbicidal effect grade [6]: 5 (Herbicidal ratio of 90% or more (almost completely withered)); L (Apera spica-venti) herbicidal effect grade [7]: 5 (Herbicidal ratio of 90% or more (almost completely withered)); Q (Galium spurium) herbicidal effect grade [8]: 3 (Herbicidal ratio of 40% or higher and lower than 70%); e (wheat) effect on crop grade [9]: 3 (Herbicidal ratio of 40% or higher and lower than 70%); g (rapeseed) effect on crop grade [10]: 4 (Herbicidal ratio of 70% or higher and lower than 90%); F: Digitaria ciliaris, herbicidal effect grade [11]: 5 (Herbicidal ratio of 90% or more (almost completely withered)); J: Alopecurus myosuroides, herbicidal effect grade [12]: 5 (Herbicidal ratio of 90% or more (almost completely withered)); L: Apera spica-venti, herbicidal effect grade [13]: 5 (Herbicidal ratio of 90% or more (almost completely withered)); M: Abutilon theophrasti, herbicidal effect grade [14]: 4 (Herbicidal ratio of 70% or higher and lower than 90%); N: Amaranthus retroflexus, herbicidal effect grade [15]: 4 (Herbicidal ratio of 70% or higher and lower than 90%); P: Stellaria media, herbicidal effect grade [16]: 4 (Herbicidal ratio of 70% or higher and lower than 90%); Q: Galium spurium, herbicidal effect grade [17]: 4 (Herbicidal ratio of 70% or higher and lower than 90%); f: beet, effect on crop grade [18]: 3 (Herbicidal ratio of 40% or higher and lower than 70%); g: rapeseed, effect on crop grade [19]: 4 (Herbicidal ratio of 70% or higher and lower than 90%)
3 | CON=C(C)CC1CC(OC(=O)N2CCOCC2)=C(c2c(C)cc(-c3ccc(F)cc3)cc2C)C1=O (mixture of isomers) [6-059] | 5 (Herbicidal ratio of 90% or more (almost completely withered)) | 5 (Herbicidal ratio of 90% or more (almost completely withered)) | 5 (Herbicidal ratio of 90% or more (almost completely withered)) | 5 (Herbicidal ratio of 90% or more (almost completely withered)) | 5 (Herbicidal ratio of 90% or more (almost completely withered)) | 5 (Herbicidal ratio of 90% or more (almost completely withered)) | 5 (Herbicidal ratio of 90% or more (almost completely withered)) | 5 (Herbicidal ratio of 90% or more (almost completely withered)) | 5 (Herbicidal ratio of 90% or more (almost completely withered)) | 4 (Herbicidal ratio of 70% or higher and lower than 90%) | 4 (Herbicidal ratio of 70% or higher and lower than 90%) | 0 (Herbicidal ratio of 5% or lower (almost no effect)) | 5 (Herbicidal ratio of 90% or more (almost completely withered)) | G: Setaria viridis, herbicidal effect grade [5]: 5 (Herbicidal ratio of 90% or more (almost completely withered)); J: Alopecurus myosuroides, herbicidal effect grade [6]: 5 (Herbicidal ratio of 90% or more (almost completely withered)); L: Apera spica-venti, herbicidal effect grade [7]: 5 (Herbicidal ratio of 90% or more (almost completely withered)); Q: Galium spurium, herbicidal effect grade [8]: 3 (Herbicidal ratio of 40% or higher and lower than 70%); e: wheat, effect on crop grade [9]: 0 (Herbicidal ratio of 5% or lower (almost no effect)); g: rapeseed, effect on crop grade [10]: 0 (Herbicidal ratio of 5% or lower (almost no effect))
